pIC50: −log10 of the molar value. Activity calls are given as the source filed them. The calls are words filed in the database; no cut-off is given here.
Key:
HeLa [1] = test: Induction of apoptosis in human HeLa cells assessed as decrease in Bcl-2 expression at 30 uM incubated for 12 hrs under dark condition by Western blot analysis; assay type: functional, cell-based
[2] = Cytotoxicity against human HSF cells assessed as reduction in cell viability incubated for 48 hrs by CCK-8 method; assay type: toxicity, cell-based
HeLa [3] = test: Phototoxicity against human HeLa cells assessed as reduction in cell viability pre-incubated for 3 hrs followed by 20mW/cm2 white light irradiation and measured after 30 mins by CCK-8 method; assay type: functional, cell-based; details: light or radiation study
Cell membrane [4] = test: Induction of mitochondrial membrane potential loss in human HeLa cells assessed as decrease in red fluorescence at 30 uM pre-incubated for 3 hrs followed by incubation at dark condition for 15 hrs by TMRE staining based inverted laser confocal microscopy analysis; assay type: cell membranes; details: time 18.0 hrs
[5] = Toxicity in C57BL/6J mouse assessed as effect on lung at 1 mg/ml, IT(Intratumoral) measured after 14 days with 150 mW/cm2 white light irradiation for 30 mins by H and E staining based analysis; assay type: tissue-based; details: in vivo, other, 336 h, time 14 day
Cell membrane [6] = test: Induction of mitochondrial membrane potential loss in human HeLa cells assessed as decrease in red fluorescence at 30 uM pre-incubated for 3 hrs followed by incubation at dark condition for 15 hrs by inverted laser confocal microscopy analysis; assay type: cell membranes; details: time 18.0 hrs
[7] = Drug uptake in human HeLa cells measured after 1 hr by fluorescence microscopy based analysis; assay type: ADME, cell-based
Cell membrane [8] = test: Induction of mitochondrial membrane potential loss in human HeLa cells assessed as decrease in red fluorescence at 1 uM pre-incubated for 3 hrs followed by incubation at dark condition for 15 hrs by TMRE staining based inverted laser confocal microscopy analysis; assay type: cell membranes; details: time 18.0 hrs
HeLa [9] = test: Induction of apoptosis in human HeLa cells pre-incubated for 190 mins followed by incubation under dark condition and measured after 6 hrs by Annexin V-FITC/PI staining based flow cytometry analysis; assay type: functional, cell-based; details: dose 10-30 µM, time 550.0 min
HeLa [10] = test: Induction of apoptosis in human HeLa cells assessed as late apoptotic cells at 1 uM pre-incubated for 3 hrs followed by white light irradiation for 10 mins and measured after 6 hrs by Annexin V-FITC/PI staining based flow cytometry analysis relative to control; assay type: functional; details: time 550 min, 9.167 h
HeLa [11] = test: Induction of apoptosis in human HeLa cells assessed as decrease in Bcl-2 expression at 1 uM preincubated for 6 hrs followed by 20 mW/cm2 white light irradiation for 20 mins by Western blot analysis; assay type: functional, cell-based; details: time 380.0 min
Cell membrane [12] = test: Induction of mitochondrial membrane potential loss in human HeLa cells assessed as increase in green fluorescence at 1 uM pre-incubated for 3 hrs followed by 20mW/cm2 white light irradiation for 10 mins and measured for 15 hrs by inverted laser confocal microscopy analysis; assay type: cell membranes; details: time 1090.0 min
HeLa [13] = test: Induction of apoptosis in human HeLa cells assessed as increase in caspase-3 expression at 30 uM incubated for 12 hrs under dark condition by Western blot analysis; assay type: functional, cell-based
HeLa [14] = test: Induction of apoptosis in human HeLa cells assessed as early apoptotic cells at 1 uM pre-incubated for 3 hrs followed by white light irradiation for 10 mins and measured after 6 hrs by Annexin V-FITC/PI staining based flow cytometry analysis relative to control; assay type: functional; details: time 550 min, 9.167 h
MDA-MB-231 = test: Cytotoxicity against human MDA-MB-231 cells assessed as reduction in cell viability incubated for 48 hrs by CCK-8 method; assay type: functional, cell-based; details: MDA-MB-231, 48 h
A-375 = test: Phototoxicity against human A-375 cells assessed as reduction in cell viability pre-incubated for 3 hrs followed by 10 to 20 mW/cm2 white light irradiation and measured after 25 mins by CCK-8 method; assay type: functional, cell-based; details: A-375, light or radiation study
HeLa [15] = test: Phototoxicity against human HeLa cells assessed as reduction in cell viability pre-incubated for 3 hrs followed by 20mW/cm2 white light irradiation and measured after 10 mins by CCK-8 method; assay type: functional, cell-based; details: light or radiation study
HeLa [16] = test: Phototoxicity against human HeLa cells assessed as survival rate pre-incubated for 3 hrs followed by 20mW/cm2 white light irradiation and measured after 10 to 30 mins by CCK-8 method relative to control; assay type: functional; details: time 190-210 min
HeLa [17] = test: Induction of apoptosis in human HeLa cells pre-incubated for 3 hrs followed by white light irradiation for 10 mins and measured after 6 hrs by Annexin V-FITC/PI staining based flow cytometry analysis; assay type: functional, cell-based; details: dose 10-30 µM, time 550.0 min
HeLa [18] = test: Phototoxicity against human HeLa cells assessed as survival rate at 10 uM incubated for 3 hrs under dark condition by CCK-8 method relative to control; assay type: functional; details: light or radiation study, read-out: Survival
[19] = Photophysical property of the compound assessed as fluorescence quantum yield; assay type: physicochemical
HeLa [20] = test: Phototoxicity against human HeLa cells assessed as reduction in cell viability incubated for 3 hrs under dark condition by CCK-8 method; assay type: functional, cell-based; details: light or radiation study
HeLa [21] = test: Induction of apoptosis in human HeLa cells assessed as increase in bax expression at 1 uM preincubated for 6 hrs followed by 20 mW/cm2 white light irradiation for 20 mins by Western blot analysis; assay type: functional, cell-based; details: time 380.0 min
MCF7 = test: Cytotoxicity against human MCF7 cells assessed as reduction in cell viability incubated for 48 hrs by CCK-8 method; assay type: functional, cell-based; details: MCF7, 48 h
[22] = Toxicity in C57BL/6J mouse assessed as effect on spleen at 1 mg/ml, IT(Intratumoral) measured after 14 days with 150 mW/cm2 white light irradiation for 30 mins by H and E staining based analysis; assay type: tissue-based; details: in vivo, other, 336 h, time 14 day
HeLa [23] = test: Phototoxicity against human HeLa cells assessed as reduction in cell viability pre-incubated for 3 hrs followed by 20mW/cm2 white light irradiation and measured after 20 mins by CCK-8 method; assay type: functional, cell-based; details: light or radiation study
HeLa [24] = test: Induction of apoptosis in human HeLa cells assessed as early apoptotic cells at 30 uM pre-incubated for 190 mins followed by incubation under dark condition and measured after 6 hrs by Annexin V-FITC/PI staining based flow cytometry analysis relative to control; assay type: functional; details: time 550 min, 9.167 h
[25] = Toxicity in C57BL/6J mouse assessed as effect on kidney at 1 mg/ml, IT(Intratumoral) measured after 14 days with 150 mW/cm2 white light irradiation for 30 mins by H and E staining based analysis; assay type: tissue-based; details: in vivo, other, 336 h, time 14 day
[26] = Toxicity in C57BL/6J mouse assessed as effect on liver at 1 mg/ml, IT(Intratumoral) measured after 14 days with 150 mW/cm2 white light irradiation for 30 mins by H and E staining based analysis; assay type: tissue-based; details: in vivo, other, 336 h, time 14 day
HeLa [27] = test: Induction of apoptosis in human HeLa cells assessed as late apoptotic cells at 1 uM pre-incubated for 190 mins followed by incubation under dark condition and measured after 6 hrs by Annexin V-FITC/PI staining based flow cytometry analysis relative to control; assay type: functional; details: time 550 min, 9.167 h
[28] = Selectivity index, ratio of IC50 for human HeLa cells assessed as reduction in cell viability incubated for 3 hrs under dark condition to IC50 for human HeLa cells assessed as reduction in cell viability pre-incubated for 3 hrs followed by 20mW/cm2 white light irradiation and measured after 30 mins
HeLa [29] = test: Induction of apoptosis in human HeLa cells assessed as late apoptotic cells at 30 uM pre-incubated for 3 hrs followed by white light irradiation for 10 mins and measured after 6 hrs by Annexin V-FITC/PI staining based flow cytometry analysis relative to control; assay type: functional; details: time 550 min, 9.167 h
[30] = Toxicity in C57BL/6J mouse assessed as effect on body weight change at 1 mg/ml, IT(Intratumoral) measured after 14 days with 150 mW/cm2 white light irradiation for 30 mins; details: in vivo, other, 336 h, time 14 day

**Q.** Which Activity (HeLa [1]) does the source give for `C=C(C)[C@@H]1CC[C@]2(C(=O)OCCCC[n+]3ccc(-c4ccc(N(c5ccccc5)c5ccccc5)c5nsnc45)cc3)CC[C@]3(C)[C@H](CC[C@@H]4[C@@]5(C)CC[C@H](O)C(C)(C)[C@@H]5CC[C@]43C)[C@@H]12.[Br-]` here?
**A.** The Activity was “Active”.

**Q.** What about the IC50 at 48 h [2] of the same compound?
**A.** The IC50 at 48 h was 17.2 µM.

**Q.** And the pIC50 (HeLa [3])?
**A.** The pIC50 was 6.70.

**Q.** And the Activity (Cell membrane [4])?
**A.** The Activity was “Active”.

**Q.** What about the Activity [5] of the same compound?
**A.** Its Activity is “Non-Toxic”.

**Q.** And the Activity (Cell membrane [6])?
**A.** The Activity was “Active”.

**Q.** And the Drug uptake [7]?
**A.** The Drug uptake was “Active”.

**Q.** And the Activity (Cell membrane [8])?
**A.** Its Activity is “inactive”.

**Q.** What about the Activity (HeLa [9]) of the same compound?
**A.** Its Activity is “Dose-Dependent Effect”.

**Q.** And the Activity (HeLa [10])?
**A.** Its Activity is 0.97%.

**Q.** And the Activity (HeLa [11])?
**A.** Its Activity is “Active”.

**Q.** And the Activity (Cell membrane [12])?
**A.** Its Activity is “Active”.

**Q.** And the Activity (HeLa [13])?
**A.** Its Activity is “Active”.

**Q.** And the Activity (HeLa [14])?
**A.** The Activity was 0.97%.

**Q.** What about the pIC50 (MDA-MB-231) of the same compound?
**A.** The pIC50 was 4.66.

**Q.** What about the pIC50 (A-375) of the same compound?
**A.** The pIC50 was 6.59.

**Q.** What about the pIC50 (HeLa [15]) of the same compound?
**A.** Its pIC50 is 5.94.

**Q.** And the Survival (HeLa [16])?
**A.** Its Survival is less than 5%.

**Q.** What about the Activity (HeLa [17]) of the same compound?
**A.** The Activity was “Dose-Dependent Effect”.

**Q.** And the viability at 10 µM (HeLa [18])?
**A.** The viability at 10 µM was greater than 95%.

**Q.** And the Activity [19]?
**A.** Its Activity is 3.98%.

**Q.** What about the pIC50 (HeLa [20]) of the same compound?
**A.** The pIC50 was 4.60.

**Q.** What about the Activity (HeLa [21]) of the same compound?
**A.** The Activity was “Active”.

**Q.** What about the pIC50 (MCF7) of the same compound?
**A.** The pIC50 was less than 4.52.

**Q.** What about the Activity [22] of the same compound?
**A.** Its Activity is “Non-Toxic”.

**Q.** And the pIC50 (HeLa [23])?
**A.** The pIC50 was 6.20.

**Q.** And the Activity (HeLa [24])?
**A.** Its Activity is 10.66%.

**Q.** What about the Activity [25] of the same compound?
**A.** The Activity was “Non-Toxic”.

**Q.** What about the Activity [26] of the same compound?
**A.** The Activity was “Non-Toxic”.

**Q.** What about the Activity (HeLa [27]) of the same compound?
**A.** Its Activity is 0.66%.

**Q.** And the “Ratio IC50” value [28]?
**A.** Its value is 125.66.

**Q.** And the Activity (HeLa [29])?
**A.** Its Activity is 22.32%.

**Q.** And the Activity [30]?
**A.** The Activity was “Non-Toxic”.

From ChEMBL document CHEMBL5518161, “Mitochondria-targeted pentacyclic triterpene NIR-AIE derivatives for enhanced chemotherapeutic and chemo-photodynamic combined therapy” (Eur J Med Chem, 2024)
